In ChEMBL document CHEMBL1156928, “Design of novel nicotinamides as potent and selective monoamine oxidase a inhibitors” (Bioorg Med Chem, 2010):

Legend:
[1] = molecular target: T1, Amine oxidase [flavin-containing] A (Rattus norvegicus, UniProt P21396); test: Inhibition of MAOA in Sprague-Dawley rat brain mitochondria using kynuramine substrate by fluorimetry
T1 sequence (P21396 whole entry): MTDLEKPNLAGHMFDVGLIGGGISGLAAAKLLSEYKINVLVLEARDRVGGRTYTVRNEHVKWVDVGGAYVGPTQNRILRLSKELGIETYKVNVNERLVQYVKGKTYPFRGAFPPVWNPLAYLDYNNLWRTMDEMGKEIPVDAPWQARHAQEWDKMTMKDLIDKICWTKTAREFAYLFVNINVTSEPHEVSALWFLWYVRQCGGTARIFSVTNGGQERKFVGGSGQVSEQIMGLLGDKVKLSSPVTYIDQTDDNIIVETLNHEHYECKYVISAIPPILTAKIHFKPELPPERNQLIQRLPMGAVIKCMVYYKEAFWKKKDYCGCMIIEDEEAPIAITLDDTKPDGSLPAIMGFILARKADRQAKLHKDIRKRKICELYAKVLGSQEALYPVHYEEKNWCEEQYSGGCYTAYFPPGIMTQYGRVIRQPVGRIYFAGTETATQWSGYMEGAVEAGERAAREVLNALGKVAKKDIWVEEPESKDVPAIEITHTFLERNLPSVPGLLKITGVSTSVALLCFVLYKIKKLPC

[2] = molecular target: T2, Amine oxidase [flavin-containing] B (Rattus norvegicus, UniProt P19643); test: Inhibition of MAOB in Sprague-Dawley rat brain mitochondria using kynuramine substrate by fluorimetry
T2 sequence (P19643 whole entry): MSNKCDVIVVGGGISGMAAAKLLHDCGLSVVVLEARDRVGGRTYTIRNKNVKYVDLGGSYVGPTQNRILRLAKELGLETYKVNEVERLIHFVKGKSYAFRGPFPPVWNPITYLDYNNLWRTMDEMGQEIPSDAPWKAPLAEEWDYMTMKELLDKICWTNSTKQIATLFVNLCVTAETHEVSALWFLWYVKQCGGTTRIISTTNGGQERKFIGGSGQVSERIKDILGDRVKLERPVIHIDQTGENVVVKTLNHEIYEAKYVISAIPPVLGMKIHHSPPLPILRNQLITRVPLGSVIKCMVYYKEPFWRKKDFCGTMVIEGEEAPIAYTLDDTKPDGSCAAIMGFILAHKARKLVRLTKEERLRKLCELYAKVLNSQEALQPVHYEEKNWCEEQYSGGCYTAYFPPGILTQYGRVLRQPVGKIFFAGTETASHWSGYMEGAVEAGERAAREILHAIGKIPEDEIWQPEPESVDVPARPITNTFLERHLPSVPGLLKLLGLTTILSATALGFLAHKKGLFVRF

Structure (SMILES) | IC50 [1] [µM] | IC50 [2] [µM]
O=C(NCCN1CCOCC1)c1cnc(Cl)c(Cl)c1 | 0.084 | 48
O=C(NCCN1CCOCC1)c1ccc(Cl)nc1 | 0.18 | 34
O=C(NCCN1CCOCC1)c1ccc(=O)[nH]c1 | 0.43 | > 100
Cc1ccc(C(=O)NCCCN2CCOCC2)c(Cl)n1 | > 100 | > 100
O=C(NCCN1CCOCC1)c1cccnc1O | 45 | > 100
O=C(NCCN1CCOCC1)c1cnccc1Cl | 0.75 | 74
O=C(NCCCN1CCOCC1)c1cccnc1Br | 35 | 1.9
O=C(NCCCN1CCOCC1)c1ccc(F)nc1 | 80 | > 100
O=C(NCCN1CCOCC1)c1cccnc1Cl | 2.6 | 1.8
Cc1ccc(C(=O)NCCN2CCOCC2)c(Cl)n1 | 28 | > 100
O=C(NCCN1CCOCC1)c1cccnc1Br | 8.5 | 0.32
O=C(NCCCN1CCOCC1)c1cccnc1Cl | 9.4 | 6.5
O=C(NCCCN1CCOCC1)c1ccc(Cl)nc1 | 0.38 | 75
O=C(NCCN1CCOCC1)c1ccc(F)nc1 | 15 | > 100
O=C(NCCN1CCOCC1)c1ccc(Cl)cc1 [MOCLOBEMIDE] | – | > 100

Second part, the molecule after the results:

IC50 [1] [µM] | IC50 [2] [µM] | Structure (SMILES)
> 100 | > 100 | Cc1ccc(C(=O)NCCCN2CCOCC2)cn1
56 | > 100 | O=C(NCCCN1CCOCC1)c1ccc(O)nc1
0.1 | 45 | O=C(NCCCN1CCOCC1)c1cnc(Cl)c(Cl)c1
12 | 82 | O=C(NCCCN1CCOCC1)c1c[nH]c(=O)c(Cl)c1
26 | 55 | O=C(NCCN1CCOCC1)c1cncc(Br)c1
86 | > 100 | Cc1ccc(C(=O)NCCN2CCOCC2)cn1
> 100 | > 100 | O=C(NCCCN1CCOCC1)c1ccc[nH]c1=O
7.5 | 53 | O=C(NCCCN1CCOCC1)c1cnccc1Cl
23 | 65 | O=C(NCCCN1CCOCC1)c1cncc(Br)c1
0.045 | 26 | O=C(NCCN1CCOCC1)c1cnc(O)c(Cl)c1
> 100 | > 100 | O=C(NCCCN1CCOCC1)c1cccnc1
68 | > 100 | O=C(NCCN1CCOCC1)c1cccnc1
